Experimental data: patent publication US20110009335A1, “Anticancer Treatments” (priority 2008, published 2011)
Starred links: 1 amine or outer side, 2 acyl side, 3 side chain; linkers in the order of their positions; H or OH if unused. Positions of bridges follow the written chain, without caps; N, C: chain ends. Non-standard residues stand in square brackets, D forms with d. Residues, ends and D or L forms follow the SMILES beside them. *: point of attachment. X1 = CC[C@H](C)[C@@H](N[*:1])[C@@H](O)CC(=O)O[C@H](C(=O)[C@H](C)C(=O)[*:2])C(C)C; NMeY = CN[C@@H](Cc1ccc(O)cc1)C(=O)O; dNMeL = CN[C@H](CC(C)C)C(=O)O; Pyruvoyl = CC(=O)C(=O)*

Experiments:
[1] = system: MRI-H-121 human renal tumor xenograft; assay: Aplidine with temsirolimus, MRI-H-121 xenograft in athymic nude mice (Example 3); assay type: in vivo; conditions: for antitumor activity as single agent (monotherapy): doses tested, temsirolimus 10 and 20 mg/kg/day; for % Inhibition G2: aplidine 0.06 mg/kg/day
Procedure: Female athymic nude mice (Harlan Sprague Dawley, Madison, Wis.) were utilized for all experiments. Mice were implanted with tumor fragments when mice were 5 weeks of age. Animals were housed in ventilated rack caging, 5 mice per cage, with food and water ad libitum. The mice were acclimated for 1 week prior to being implanted with tumor fragments.
Tumor measurements were determined as disclosed in Example 1. When tumor growth was within an average size range of 95±1.6 mg (mean±SD), mice were randomized into the treatment and control groups based on tumor weight by using LabCat® In Life module V 8.0 SP1 tumor tracking and measurement software.
(§1) Body weights were recorded on treatment days and when tumor sizes were measured. In those days wherein the two drugs were administered the same day, the combination therapy groups were treated by co-administering the two drugs at the same time, with no attempt to sequence the treatments.
(§2) Aplidine was provided in the form of vials of lyophilized aplidine powder which was reconstituted in Cremophor EL/ethanol/water (CEW) 15/15/70 to a concentration of 0.5 mg/ml. The aplidine solution in CEW was diluted in 0.9% Saline to the dosing formulation concentrations, being the final proportion of CEW of 0.18/0.18/0.84.
Temsirolimus was provided in the form of vials containing a non-aqueous, ethanolic, sterile solution of temsirolimus, 25 mg/ml. […] Then, the solution was further diluted in 0.9% Saline to the dosing formulation concentrations.
Tumor size measurements were recorded twice weekly from the treatment initiation until the termination of the study. Tumor growth inhibition was assessed comparing the mean tumor weight between the two agents in combination (aplidine and temsirolimus) against temsirolimus mean tumor weight at the different concentrations assayed.
(§3) Mean, standard deviation and standard error of the mean were determined for tumor volume for all animal groups at all assessments. Student's t test was performed on tumor volumes at each measurement day, including at the end of the study, to determine whether there were any statistically significant differences between combination treatment groups and single monotherapy treatment groups.
(§4) The definition and criteria for the evaluation of potentiation and the degree of additivity for the combination therapy were the same as those disclose in Example 1.

[2] = system: LOX-IMVI human melanoma xenograft; assay: Aplidine with sorafenib, LOX-IMVI xenograft in athymic nude mice (Example 7); assay type: in vivo; conditions: for antitumor activity as single agent (monotherapy): doses tested; for % Inhibition G4: sorafenib 30 mg/kg/day; for % Inhibition G3: sorafenib 60 mg/kg/day; for % Inhibition G2: aplidine 0.06 mg/kg/day
Text: Female athymic nude mice (Harlan Sprague Dawley, Madison, Wis.) were utilized for all experiments. Mice were implanted with a tumor fragment when mice were 6-8 weeks of age. Animals were housed in ventilated rack caging with food and water ad libitum. The mice were acclimated for at least 5 days prior to tumor implantation.
The tumor model used in this study was LOX-IMVI, which is a human melanoma cell line obtained from the Department of Developmental Therapeutics, National Cancer Institute (NCI). Animals were implanted subcutaneously (SC) on the right flank, using a 13 gauge trocar, with 2 mm^3 of tissue tumor fragments of LOX-IMVI, from an in vivo transplantable line passage 1, using sterile Earle's Balanced Salt solution as a wetting agent.
Tumor measurements were determined as disclosed in Example 1. When tumor growth was within an average size range of 130±44 mg (mean±SD), mice were randomized into the treatment and control groups based on tumor weight by using LabCat® In Life module V 8.0 SP1 tumor tracking and measurement software.
as §1, with “The treatment of LOX-IMVI-tumor-bearing mice was initiated on DPI (Day Post Implantation) 11. Body” for “Body”
as §2
Tumor size measurements were recorded twice weekly from the treatment initiation until the termination of the study.
as §3, §4

[3] = G2: aplidine 0.060 mg/kg/day IP

CO[C@H]1C[C@@H]2CC[C@@H](C)[C@@](O)(O2)C(=O)C(=O)N2CCCC[C@H]2C(=O)O[C@H]([C@H](C)C[C@@H]2CC[C@@H](OC(=O)C(C)(CO)CO)[C@H](OC)C2)CC(=O)[C@H](C)/C=C(\C)[C@@H](O)[C@@H](OC)C(=O)[C@H](C)C[C@H](C)/C=C/C=C/C=C/1C [temsirolimus]
antitumor activity as single agent (monotherapy) [1]: very sensitive | % Inhibition G3 ([1]; temsirolimus 10 mg/kg/day, day 12): 4.2% | % Inhibition G3 ([1]; temsirolimus 10 mg/kg/day, day 15): 37.8% | % Inhibition G3 ([1]; temsirolimus 10 mg/kg/day, day 19): 57.7% | % Inhibition G3 ([1]; temsirolimus 10 mg/kg/day, day 22): 54.3% | % Inhibition G3 ([1]; temsirolimus 10 mg/kg/day, day 27): 61.7% | % Inhibition G3 ([1]; temsirolimus 10 mg/kg/day, day 30): 63.1% | % Inhibition G3 ([1]; temsirolimus 10 mg/kg/day, day 34): 67.4% | % Inhibition G3 ([1]; temsirolimus 10 mg/kg/day, day 37): 64.2% | % Inhibition G3 ([1]; temsirolimus 10 mg/kg/day, day 40): 57.5% | % Inhibition G3 ([1]; temsirolimus 10 mg/kg/day, day 47): 56.2% | % Inhibition G3 ([1]; temsirolimus 20 mg/kg/day, day 12): 2.3% | % Inhibition G3 ([1]; temsirolimus 20 mg/kg/day, day 15): 33.2% | % Inhibition G3 ([1]; temsirolimus 20 mg/kg/day, day 19): 58.5% | % Inhibition G3 ([1]; temsirolimus 20 mg/kg/day, day 22): 64.9% | % Inhibition G3 ([1]; temsirolimus 20 mg/kg/day, day 27): 72.6% | % Inhibition G3 ([1]; temsirolimus 20 mg/kg/day, day 30): 71.5% | % Inhibition G3 ([1]; temsirolimus 20 mg/kg/day, day 34): 73.7% | % Inhibition G3 ([1]; temsirolimus 20 mg/kg/day, day 37): 71.6% | % Inhibition G3 ([1]; temsirolimus 20 mg/kg/day, day 40): 71.5% | % Inhibition G3 ([1]; temsirolimus 20 mg/kg/day, day 47): 73.0%

CNC(=O)c1cc(Oc2ccc(NC(=O)Nc3ccc(Cl)c(C(F)(F)F)c3)cc2)ccn1 [sorafenib]
% T/C on day 11 ([2]; G3: sorafenib 60 mg/kg/day PO): 98.6% | % T/C on day 14 ([2]; G3: sorafenib 60 mg/kg/day PO): 101.2% | % T/C on day 18 ([2]; G3: sorafenib 60 mg/kg/day PO): 77.7% | % T/C on day 20 ([2]; G3: sorafenib 60 mg/kg/day PO): 71.7% | % T/C on day 22 ([2]; G3: sorafenib 60 mg/kg/day PO): 64.8% | % T/C on day 25 ([2]; G3: sorafenib 60 mg/kg/day PO): 73.3% | % T/C on day 14 ([2]; G4: sorafenib 30 mg/kg/day PO): 96.9% | % T/C on day 18 ([2]; G4: sorafenib 30 mg/kg/day PO): 77.4% | % T/C on day 20 ([2]; G4: sorafenib 30 mg/kg/day PO): 75.9% | % T/C on day 22 ([2]; G4: sorafenib 30 mg/kg/day PO): 77.3% | % T/C on day 25 ([2]; G4: sorafenib 30 mg/kg/day PO): 93.4% | antitumor activity as single agent (monotherapy) [2]: inactive | % Inhibition G4 ([2]; day 11): −2.1% | % Inhibition G4 ([2]; day 14): 3.1% | % Inhibition G4 ([2]; day 18): 22.6% | % Inhibition G4 ([2]; day 20): 24.1% | % Inhibition G4 ([2]; day 22): 22.7% | % Inhibition G4 ([2]; day 25): 6.6% | % Inhibition G3 ([2]; day 11): 1.4% | % Inhibition G3 ([2]; day 14): −1.2% | % Inhibition G3 ([2]; day 18): 22.3% | % Inhibition G3 ([2]; day 20): 28.3% | % Inhibition G3 ([2]; day 22): 35.2% | % Inhibition G3 ([2]; day 25): 26.7%

CC[C@H](C)[C@H]1NC(=O)[C@@H](NC(=O)[C@@H](CC(C)C)N(C)C(=O)[C@@H]2CCCN2C(=O)C(C)=O)[C@@H](C)OC(=O)[C@H](Cc2ccc(OC)cc2)N(C)C(=O)[C@@H]2CCCN2C(=O)[C@H](CC(C)C)NC(=O)[C@@H](C)C(=O)[C@H](C(C)C)OC(=O)C[C@@H]1O [aplidine, dehydrodidemnin B] (Pyruvoyl-P[dNMeL]T[X1]LP[NMeY](Me); ester 3-C)
% Inhibition G2 ([1]; day 12): 1.7% | % Inhibition G2 ([1]; day 15): −9.0% | % Inhibition G2 ([1]; day 19): 15.1% | % Inhibition G2 ([1]; day 22): 6.0% | % Inhibition G2 ([1]; day 27): 13.7% | % Inhibition G2 ([1]; day 30): 2.5% | % Inhibition G2 ([1]; day 34): 3.0% | % Inhibition G2 ([1]; day 37): 5.0% | % Inhibition G2 ([1]; day 40): −7.6% | % Inhibition G2 ([1]; day 47): −1.6% | antitumor activity as single agent (monotherapy) [1]: refractory | % T/C on day 11 [2, 3]: 102.9% | % T/C on day 14 [2, 3]: 82.9% | % T/C on day 18 [2, 3]: 79.3% | % T/C on day 20 [2, 3]: 98.5% | % T/C on day 22 [2, 3]: 102.0% | % T/C on day 25 [2, 3]: 105.4% | % Inhibition G2 ([2]; day 11): −2.9% | % Inhibition G2 ([2]; day 14): 17.1% | % Inhibition G2 ([2]; day 18): 20.7% | % Inhibition G2 ([2]; day 20): 1.5% | % Inhibition G2 ([2]; day 22): −2.0% | % Inhibition G2 ([2]; day 25): −5.4% | antitumor activity as single agent (monotherapy) [2]: inactive
